{
  "source": "patent US10342766B2",
  "about": "“6-shogaol derivatives and activities thereof” (North Carolina Agricultural and Technical State University, priority 2017, dated 2019)",
  "key": {"Nrf2": {"test_system": "Nrf2", "experiment": "Nrf2 reporter activity by Tg(gstp1:GFP) fluorescence in transgenic zebrafish embryos", "type": "in vivo", "details": "5 μM, 24-hour treatment from 1 dpf to 2 dpf; olfactory epithelia; relative to vehicle (DMSO = 1.00)", "description": "Zebrafish AB transgenic strains Tg(gstp1:GFP) were maintained in a Pentair Aquatic Ecosystem (Apopka, Fla., United States of America) fish housing unit with 14 h light/10 h dark cycle (see Tsujita, T., Li, L., Nakajima, H., Iwamoto, N., Nakajima-Takagi, Y., Ohashi, K., Kawakami, K., Kumagai, Y., Freeman, B. A., Yamamoto, M., and Kobayashi, M. (2011) “Nitro-fatty acids and cyclopentenone prostaglandins share strategies to activate the Keap1-Nrf2 system: a study using green fluorescent protein transgenic zebrafish.” Genes Cells 16, 46-57). The fish embryos were maintained at 28.5° C. in 0.3× Danieau's solution (19.3 mM NaCl, 0.23 mM KCl, 0.13 mM MgSO4, 0.2 mM Ca(NO3)2, 1.7 mM HEPES, pH 7.0) containing 30 μg/ml phenylthiourea (PTU) to inhibit pigmentation. Tg(gstp1:GFP) cross with AB wild-type strain fluorescence embryos were used for the experiment. Zebrafish embryos were washed, dechorionated and anaesthetized before observations, and fluorescence imaging for analysis.\nTransgenic zebrafish embryos at 1 day-post-fertilization (dpf) were dechorionated and placed in Petri dishes containing different chemicals diluted in 0.3× Danieau's solution containing PTU. The chemical stock was dissolved in DMSO at 5 mM concentration.\nAn Olympus MVX10 Fluorescence Macroscope (Olympus, Center Valley, Pa., United States of America) equipped with a Hamamatsu C9300-221 high-speed digital CCD camera (Hamamatsu City, Japan) was used for fluorescence microscopy. Tg(gstp1:GFP) fluorescent embryos were anaesthetized in tricaine and imaged at 2 dpf. MetaMorph Basic software (Olympus, Center Valley, Pa., United States of America) was used for image acquisition and analysis.\nQuantification of Nrf2 Reporter Activity by Tg(gstp1:\nGFP) Fluoresence in Zebrafish Model. The fluorescence intensity of the olfactory neural epithelia was quantitated using MetaMorph Basic software. In brief, GFP expression in the olfactory regions of Tg(gstp1:GFP) embryos treated with various chemicals was measured after 24-hour treatment from 1 dpf to 2 dpf. The GFP induction was detectable by fluorescence signal at the area of the olfactory epithelia in the anterior of the head region, the intensity was measured using an area of a circle of 60 pixel diameter of the fluorescence olfactory epithelia subtracted by a background non-fluorescence area next to the zebrafish embryo. Both the left and right olfactory epithelia were measured to give an average fluorescence value. The values are an average of measurements from at least 10 embryos."}, "[1]": {"experiment": "Biotransformation in zebrafish embryos (cysteine conjugates, LC/MS)", "type": "in vivo", "details": "5 μM in incubation medium, 8 hpf to 24 hpf", "description": "Fifty zebrafish embryos at the 8 hour-post-fertilization (hpf) stage were incubated at 28.5° C. in 0.3× Danieau's solution (19.3 mM NaCl, 0.23 mM KCl, 0.13 mM MgSO4, 0.2 mM Ca(NO3)2, 1.7 mM HEPES, pH 7.0) with or without 5 μM 18 and 25-27, respectively. At 24 hpf, embryos were dechorionated manually and the chorions were carefully removed one by one from the culture medium. The zebrafish embryos were harvested and kept at −80° C. till analyzed by LC/MS.\n200 μL Sodium acetate buffer solution (pH 5.0) was added to 50 zebrafish embryos. Samples were homogenized for 90 s by an Omni Bead Ruptor Homogenizer (Kennesaw, Ga., United States of America). 10 μL 10% ascorbic acid and 300 μL sodium acetate buffer were added to the homogenates. The mixture was incubated in the presence of β-glucuronidase (250 U) and sulfatase (3 U) at 37° C. for 45 min, and then 600 μL MeOH with 1% acetic acid was added. The resulting mixture was vortexed for 30 s and then centrifuged at 17000 g for 10 min. The supernatant was removed and evaporated under a gentle stream of nitrogen. The residue was reconstituted in 150 μL 90% MeOH with 0.2% acetic acid (AA), and 10 μL was analyzed directly by LC/MS.\n(§1) LC/MS analysis was carried out with a Thermo-Finnigan Spectra System, which consisted of an Accela high speed MS pump, an Accela refrigerated autosampler, and an LCQ Fleet ion trap mass detector (Thermo Electron, San Jose, Calif., United States of America) incorporated with an electrospray ionization (ESI) interface. A Gemini-NX C18 column (150 mm×4.6 mm i.d., 5 μm; Phenomenex, Torrance, Calif., United States of America) was used for separation at a flow rate of 0.3 mL/min. The column was eluted with 100% A (5% aqueous methanol with 0.2% formic acid) for 1 min, followed by linear increases in B (95% aqueous methanol with 0.2% formic acid) to 55% from 1 to 4 min, to 85% from 4 to 25 min, then to 100% B from 25 to 30 min, and then with 100% B from 30 to 35 min. The column was then re-equilibrated with 100% A for 5 min. The LC eluent was introduced into the ESI interface. The positive ion polarity mode was set for the ESI source with the voltage on the ESI interface maintained at approximately 4.6 kV. Nitrogen gas was used as the sheath gas and auxiliary gas. Optimized source parameters, including capillary temperature (260° C.), sheath gas flow rate (31 arbitrary units), auxiliary gas flow rate (16 units), tube lens (34 V), and capillary voltage 9 V, were tuned using authentic samples. The collision-induced dissociation (CID) was conducted with an isolation width 2 Da and normalized collision energy of 35 for MS^2. The mass range was measured from 100 to 800 m/z. Data acquisition was performed with Xcalibur version 2.0 (Thermo Electron, San Jose, Calif., United States of America)."}, "[2]": {"experiment": "Formation of cysteine conjugates in mice (urine, LC/MS)", "type": "in vivo, mouse", "details": "oral gavage 200 mg/kg, urine collected in 24 h", "description": "as §1, with “Optimized source parameters, including capillary temperature (260° C.), sheath gas flow rate (31 arbitrary units), auxiliary gas flow rate (16 units), tube lens (34 V), and capillary voltage 9 V, were tuned using authentic samples. The collision-induced dissociation (CID) was conducted with an isolation width 2 Da and normalized collision energy of 35 for MS^2.” left out, “Data acquisition was performed with Xcalibur version 2.0 (Thermo Electron, San Jose, Calif., United States of America).” left out\nEnzymatic deconjugation of mouse urine was performed as described previously with slight modifications. […] The resulting suspension was centrifuged at 17,000 g for 5 min, and 10 μL of supernatant was analyzed directly by LC/MS."}},
  "note": "“And” between values parts separate entries of the source, which are not always exact repeats. Equal entries are not always repeated.",
  "data": [
    {"compound": "CCCCCCCC(=O)/C=C/c1ccc(O)c(O)c1", "note": "[Compound 27]", "values": [
      {"measurement": "Ratio/CTL, Tg(gstp1:GFP) fluorescence signal", "setting": "Nrf2", "result": "9.19 and 9.19 ± 0.12"},
      {"measurement": "Cysteine conjugates found in zebrafish embryos", "setting": "[1]", "result": "four cysteine conjugates 36, 36a, 37, and 37b were found"},
      {"measurement": "Cysteine conjugates found in mouse urine", "setting": "[2]", "result": "conjugate 36 and its reduced form 36a, three additional conjugates 37, 37a, and 37b"}
    ]}
  ]
}
